Read-outs that look alike come from different tables or passages of the source.
Assays:
[1] = system: NCI-N87-S120 human gastric cancer cells; conditions: cells with induced resistance to SN-38; cited from earlier work
[2] = system: MDA-MB-231 human breast cancer cells; conditions: cells with induced resistance to SN-38; cited from earlier work
NCI-N87-S120 xenografts = conditions: in combination with IMMU-132; cited from earlier work
urothelial carcinoma [3] = conditions: cited from earlier work
[4] = system: metastatic colorectal cancer; conditions: cited from earlier work
[5] = system: relapsed metastatic ovarian cancer; experiment: Therapy of relapsed metastatic ovarian cancer with IMMU-130 plus prexasertib (case, Example 7); conditions: one patient
recurrent SCLC = conditions: cited from earlier work
TNBC xenografts = conditions: in combination with sacituzumab govitecan; independent of BRCA1/2 mutation status; cited from earlier work
[6] = system: platinum-resistant urothelial cancer; conditions: cited from earlier work
[7] = system: advanced colorectal cancer; conditions: cited from earlier work
urothelial carcinoma [8] = conditions: docetaxel-alone control arm; cited from earlier work
SCLC [9] = conditions: cited from earlier work
SCLC [10] = conditions: 28 patients; cited from earlier work

## COc1ccc2c3c([nH]c2c1)[C@H](CC(C)C)N1C(=O)[C@H](CCC(=O)OC(C)(C)C)NC(=O)[C@@H]1C3 [Kol43]
[1]
  effect on toxicity of SN-38: restored toxicity of SN-38
[2]
  effect on toxicity of SN-38: restored toxicity of SN-38

## CCN(CC)CC(=O)OC1CCN(c2ccc(/C=C(\C#N)c3ccc(OC)c(OC)c3)s2)CC1.CS(=O)(=O)O [YHO-13351]
[1]
  effect on toxicity of SN-38: restored toxicity of SN-38
[2]
  effect on toxicity of SN-38: restored toxicity of SN-38
NCI-N87-S120 xenografts
  median survival of mice: increased median survival

## Nc1nc2[nH]cc(CCc3ccc(C(=O)N[C@@H](CCC(=O)O)C(=O)O)cc3)c2c(=O)[nH]1 [pemetrexed]
Urothelial carcinoma [3]; 95% confidence interval 1%-9%
  objective response rate: 5%
Urothelial carcinoma [3]; in vivo
  median progression-free survival: 2.4 months

## labetuzumab govitecan
[4]; 72 assessable patients
  patients with a reduction in tumor size and plasma CEA levels: 38%
  patients with partial response: One
  patients with stable disease: 42 patients
[4]; human, in vivo
  median OS: 6.9 months
  median PFS: 3.6 months
[5]; IMMU-130 10 mg/kg plus prexasertib 105 mg/m^2
  response by RECIST criteria: partial response
[5]; IMMU-130 plus prexasertib
  decrease of the sum of the diameters of the index lesions: 45%
  toxicity: transient grade 2 neutropenia and some initial diarrhea

## nivolumab: anti-PD1 checkpoint inhibitor antibody
Recurrent SCLC; combination with ipilimumab
  disease-control rate: 32%
Recurrent SCLC; nivolumab alone
  response rate: 10%

## CNCc1ccc(-c2[nH]c3cc(F)cc4c3c2CCNC4=O)cc1 [rucaparib]
TNBC xenografts
  effect on tumor growth: synergistic inhibition of tumor growth

## Cn1ncnc1[C@H]1c2n[nH]c(=O)c3cc(F)cc(c23)N[C@@H]1c1ccc(F)cc1 [talazoparib]
TNBC xenografts
  effect on tumor growth: synergistic inhibition of tumor growth

## CCc1c2c(nc3ccc(OC(=O)N4CCC(N5CCCCC5)CC4)cc13)-c1cc3c(c(=O)n1C2)COC(=O)[C@]3(O)CC [irinotecan]
[6]; 95% confidence interval 1%-17%
  overall response rate: 5%
[6]; human, in vivo
  duration of a complete response: 33 months
  overall survival: 5.4 months
[7]; TDP1 IVS12+79 G/G genotype
  response to irinotecan: 64%
[7]; TDP1 IVS12+79 T/T genotype
  response to irinotecan: 25%
[7]; TOP1 IVS4+61 A/A genotype (small sample size)
  incidence of grade 3/4 neutropenia: 50%
[7]; TOP1 IVS4+61 G/G genotype
  incidence of grade 3/4 neutropenia: 8%

## CC(=O)O[C@@]12CO[C@@H]1C[C@H](O)[C@@]1(C)C(=O)[C@H](O)C3=C(C)[C@@H](OC(=O)[C@H](O)[C@@H](NC(=O)OC(C)(C)C)c4ccccc4)C[C@@](O)([C@@H](OC(=O)c4ccccc4)[C@H]21)C3(C)C [docetaxel]
Urothelial carcinoma [8]
  progression-free survival: 10.4 weeks
  response rate: 5%

## O=C(c1cc(Cc2n[nH]c(=O)c3ccccc23)ccc1F)N1CCN(C(=O)C2CC2)CC1 [olaparib]
TNBC xenografts
  effect on tumor growth: synergistic inhibition of tumor growth

## CC[C@@]1(O)C(=O)OCc2c1cc1n(c2=O)Cc2cc3c(CN(C)C)c(O)ccc3nc2-1 [topotecan]
SCLC [9]; chemoresistant frontline patients
  objective response rate: 5%
SCLC [9]; chemosensitive patients
  objective response rate: 17%
SCLC [9]; in vivo
  grade >=3 anemia: 24%
  grade >=3 neutropenia: 69%
  grade >=3 thrombocytopenia: 1%
  patients who died from this chemotherapy: approximately 2%
SCLC [10]
  PR: 11%
  median survival: 5 months
  one-year survival: 3.5%

## COc1ccc2c3c([nH]c2c1)[C@H](C=C(C)C)N1C(=O)[C@@H]2CCCN2C(=O)[C@@H]1C3 [fumitremorgin C]
[1]
  effect on toxicity of SN-38: restored toxicity of SN-38
[2]
  effect on toxicity of SN-38: restored toxicity of SN-38
